Experimental data as given in patent US12410160B2 (Gilead Sciences, Inc., priority 2021, dated 2025).
Read-outs that look alike come from different tables or passages of the source.

Tests used:
human KHK-C = human KHK-C (Homo sapiens (Human), UniProt P50053); test: KHK Biochemical Assay (IC50), ADP-Glo, KHK-C; conditions: average of at least two separate assays
How it was run: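 Luminescent ADP-Glo read-out of ADP made by His-tagged KHK (BL21 (DE3) expression, Ni-NTA). Enzyme and compound sat together 30 min before ATP/fructose addition, then reacted 4 h at RT in Hepes pH 7.4 buffer with KCl, MgCl2, Triton-X. Quench 1 h, detection 1 h.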

[1] = target: KHK-C expressed in NRK-52E cells (Homo sapiens (Human), UniProt P50053); test: KHK-C Cell-based Assay (EC50), NRK CTG, fructose-mediated ATP-depletion
[2] = read-out: NRK CTG EC50, NRK-52E cells, Cell-Titer Glo, 25 mM fructose

Chain of human KHK-C (P50053 whole entry): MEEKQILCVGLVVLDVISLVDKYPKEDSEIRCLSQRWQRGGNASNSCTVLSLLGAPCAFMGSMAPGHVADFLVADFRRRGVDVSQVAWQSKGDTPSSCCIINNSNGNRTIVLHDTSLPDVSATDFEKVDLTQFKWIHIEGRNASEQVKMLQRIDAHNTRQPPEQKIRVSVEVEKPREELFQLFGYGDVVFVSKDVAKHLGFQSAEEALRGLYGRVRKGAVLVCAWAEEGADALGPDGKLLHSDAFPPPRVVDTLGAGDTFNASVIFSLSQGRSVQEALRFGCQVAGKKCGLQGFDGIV
Chain of KHK-C expressed in NRK-52E cells (P50053 whole entry): as above

SMILES: C[C@H]1CCN1c1nc2c(c(-c3cccc([C@H]4C[C@@H](C(=O)O)C4)c3)n1)CCC2 (single isomer, unassigned) [Example 440]
- IC50 (human KHK-C): 6.2 nM
- EC50 [1, 2]: 81.6 nM

SMILES: C[C@H]1CCN1c1nc2c(c(-c3cccc([C@H]4C[C@H](C(=O)O)C4)c3)n1)CCC2 (single isomer, unassigned) [Example 441]
- IC50 (human KHK-C): 7 nM
- EC50 [1, 2]: 211 nM

SMILES: C[C@H]1CCN1c1nc2c(c(-c3cccc([S+](C)[O-])c3)n1)CCC2 (stereo in doubt) [Example 400, (S)-2-(2-methylazetidin-1-yl)-4-(3-(methylsulfinyl)phenyl)-6,7-dihydro-5H-cyclopenta[d]pyrimidine]
- IC50 (human KHK-C): 156 nM
- EC50 [1]: 320 nM

SMILES: C[C@H]1CCN1c1nc2c(c(-c3cccc(CN4CCCS4(=O)=O)c3)n1)CCC2 [Example 75, (S)-2-(3-(2-(2-methylazetidin-1-yl)-6,7-dihydro-5H-cyclopenta[d]pyrimidin-4-yl)benzyl)isothiazolidine 1,1-dioxide]
- IC50 (human KHK-C; ADP-Glo): 18.9 nM
- EC50 [1]: 54.7 nM

SMILES: C[C@H]1CNC(=O)c2ccc(-c3nc(N4C[C@@H](O)[C@@H]4C)nc4c3CCC4(F)F)cc2O1 [Example 87]
- IC50 (human KHK-C; ADP-Glo): 3.4 nM
- EC50 [1]: 46 nM

SMILES: C[C@@H]1CNC(=O)c2ccc(-c3nc(N4C[C@@H](O)[C@@H]4C)nc4c3CCC4(F)F)cc2O1 [Example 94]
- IC50 (human KHK-C; ADP-Glo): 8.4 nM
- EC50 [1]: 84.1 nM

SMILES: C[C@H]1[C@H](O)CN1c1nc2c(c(-c3ccc(C(=O)O)cc3)n1)CCC2 [Example 162, 4-(2-((2S,3R)-3-hydroxy-2-methylazetidin-1-yl)-6,7-dihydro-5H-cyclopenta[d]pyrimidin-4-yl)benzoic acid]
- IC50 (human KHK-C; ADP-Glo): 93.1 nM
- EC50 [1]: > 5000 nM

SMILES: C[C@H]1CCN1c1nc2c(c(-c3ccc4cnccc4c3)n1)CCC2 [Example 163, (S)-6-(2-(2-methylazetidin-1-yl)-6,7-dihydro-5H-cyclopenta[d]pyrimidin-4-yl)isoquinoline]
- IC50 (human KHK-C; ADP-Glo): 49 nM
- EC50 [1]: 251 nM

SMILES: C[C@H]1[C@H](O)CN1c1nc2c(c(-c3ccc4c(c3)OCCNC4=O)n1)CCC2 [Example 164, 8-(2-((2S,3R)-3-hydroxy-2-methylazetidin-1-yl)-6,7-dihydro-5H-cyclopenta[d]pyrimidin-4-yl)-3,4-dihydrobenzo[f][1,4]oxazepin-5(2H)-one]
- IC50 (human KHK-C; ADP-Glo): 16.4 nM
- EC50 [1]: 94.5 nM

SMILES: C[C@H]1c2ccccc2CN1c1nc2c(c(-c3ccc(C(N)=O)cc3)n1)CCC2 [Example 167, (S)-4-(2-(1-methylisoindolin-2-yl)-6,7-dihydro-5H-cyclopenta[d]pyrimidin-4-yl)benzamide]
- IC50 (human KHK-C; ADP-Glo): > 5000 nM
- EC50 [1]: > 5000 nM

SMILES: C[C@H]1[C@H](O)CN1c1nc(-c2ccc(C(N)=O)nc2)c2c(n1)C(F)(F)CC2 [Example 168, 5-(7,7-difluoro-2-((2S,3R)-3-hydroxy-2-methylazetidin-1-yl)-6,7-dihydro-5H-cyclopenta[d]pyrimidin-4-yl)picolinamide]
- IC50 (human KHK-C; ADP-Glo): 23.3 nM
- EC50 [1]: 144 nM

SMILES: C[C@H]1[C@@H](O)CN1c1nc2c(c(-c3ccc(C(N)=O)cc3)n1)CCC2 [Example 169, 4-(2-((2S,3S)-3-hydroxy-2-methylazetidin-1-yl)-6,7-dihydro-5H-cyclopenta[d]pyrimidin-4-yl)benzamide]
- IC50 (human KHK-C; ADP-Glo): 4430 nM
- EC50 [1]: > 5000 nM

SMILES: CNC(=O)c1ccc(-c2nc(N3C[C@@H](O)[C@@H]3C)nc3c2CCC3(F)F)cc1 [Example 171, 4-(7,7-difluoro-2-((2S,3R)-3-hydroxy-2-methylazetidin-1-yl)-6,7-dihydro-5H-cyclopenta[d]pyrimidin-4-yl)-N-methylbenzamide]
- IC50 (human KHK-C; ADP-Glo): 23.5 nM
- EC50 [1]: 165 nM

SMILES: NC(=O)c1ccc(-c2nc(N3Cc4n[nH]cc4C3CO)nc3c2CCC3)cc1 (stereo not shown) [Example 172, 4-(2-(4-(hydroxymethyl)-2,6-dihydropyrrolo[3,4-c]pyrazol-5(4H)-yl)-6,7-dihydro-5H-cyclopenta[d]pyrimidin-4-yl)benzamide]
- IC50 (human KHK-C; ADP-Glo): > 5000 nM
- EC50 [1]: > 5000 nM

SMILES: NC(=O)c1ccc(-c2nc(N3CCn4nccc43)nc3c2CCC3)cc1 [Example 173, 4-(2-(2,3-dihydro-1H-imidazo[1,2-b]pyrazol-1-yl)-6,7-dihydro-5H-cyclopenta[d]pyrimidin-4-yl)benzamide]
- IC50 (human KHK-C; ADP-Glo): > 5000 nM
- EC50 [1]: > 5000 nM

SMILES: NC(=O)c1ccc(-c2nc(N3CCn4cncc43)nc3c2CCC3)cc1 [Example 174, 4-(2-(2,3-dihydro-1H-imidazo[1,5-a]imidazol-1-yl)-6,7-dihydro-5H-cyclopenta[d]pyrimidin-4-yl)benzamide]
- IC50 (human KHK-C; ADP-Glo): > 5000 nM
- EC50 [1]: > 5000 nM

SMILES: C[C@H]1[C@H](O)CN1c1nc(-c2ccc(C(N)=O)cc2)c2c(n1)C1CC2C1 [Example 176]
- IC50 (human KHK-C; ADP-Glo): 899 nM
- EC50 [1]: 2810 nM

SMILES: C[C@H]1COc2cc(-c3nc(N4C[C@@H](O)[C@@H]4C)nc4c3CCC4(F)F)ccc2C(=O)N1 [Example 179, (S)-8-(7,7-difluoro-2-((2S,3R)-3-hydroxy-2-methylazetidin-1-yl)-6,7-dihydro-5H-cyclopenta[d]pyrimidin-4-yl)-3-methyl-3,4-dihydrobenzo[f][1,4]oxazepin-5(2H)-one]
- IC50 (human KHK-C; ADP-Glo): 34.8 nM
- EC50 [1]: 386 nM

SMILES: C[C@@H]1COc2cc(-c3nc(N4C[C@@H](O)[C@@H]4C)nc4c3CCC4(F)F)ccc2C(=O)N1 [Example 180, (R)-8-(7,7-difluoro-2-((2S,3R)-3-hydroxy-2-methylazetidin-1-yl)-6,7-dihydro-5H-cyclopenta[d]pyrimidin-4-yl)-3-methyl-3,4-dihydrobenzo[f][1,4]oxazepin-5(2H)-one]
- IC50 (human KHK-C; ADP-Glo): 27.4 nM
- EC50 [1]: 177 nM

SMILES: CC(=O)Nc1cc(-c2nc(N3C[C@@H](O)[C@@H]3C)nc3c2CCC3(F)F)ccc1C(N)=O [Example 181, 2-acetamido-4-(7,7-difluoro-2-((2S,3R)-3-hydroxy-2-methylazetidin-1-yl)-6,7-dihydro-5H-cyclopenta[d]pyrimidin-4-yl)benzamide]
- IC50 (human KHK-C; ADP-Glo): 11 nM
- EC50 [1]: 579 nM

SMILES: C[C@H]1[C@H](O)CN1c1nc(-c2ccc(C(N)=O)c(OC(F)(F)F)c2)c2c(n1)C(F)(F)CC2 [Example 183, 4-(7,7-difluoro-2-((2S,3R)-3-hydroxy-2-methylazetidin-1-yl)-6,7-dihydro-5H-cyclopenta[d]pyrimidin-4-yl)-2-(trifluoromethoxy)benzamide]
- IC50 (human KHK-C; ADP-Glo): 21.3 nM
- EC50 [1]: 89.1 nM

SMILES: C[C@H]1[C@H](O)CN1c1nc2c(c(-c3ccc(CNS(C)(=O)=O)cc3)n1)CCC2 [Example 195, N-[[4-[2-[(2S,3R)-3-hydroxy-2-methyl-azetidin-1-yl]-6,7-dihydro-5H-cyclopenta[d]pyrimidin-4-yl]phenyl]methyl]methanesulfonamide]
- IC50 (human KHK-C; ADP-Glo): 58.6 nM
- EC50 [1]: 431 nM

SMILES: C[C@H]1CCN1c1nc2c(c(-c3ccncn3)n1)CCC2 [Example 393, 2-[(2S)-2-methylazetidin-1-yl]-4-pyrimidin-4-yl-6,7-dihydro-5H-cyclopenta[d]pyrimidine]
- IC50 (human KHK-C): 219 nM
- EC50 [1]: 403 nM

SMILES: C[C@H]1CCN1c1nc2c(c(-c3nccn3C)n1)CCC2 [Example 394, 2-[(2S)-2-methylazetidin-1-yl]-4-(1-methylimidazol-2-yl)-6,7-dihydro-5H-cyclopenta[d]pyrimidine]
- IC50 (human KHK-C): 172 nM
- EC50 [1]: 785 nM

SMILES: C[C@H]1CCN1c1nc2c(c(-c3nc4ccc(C(=O)O)cc4n3C)n1)CCC2 [Example 395, 3-methyl-2-[2-[(2S)-2-methylazetidin-1-yl]-6,7-dihydro-5H-cyclopenta[d]pyrimidin-4-yl]benzimidazole-5-carboxylic acid]
- IC50 (human KHK-C): 329 nM
- EC50 [1]: > 5000 nM

SMILES: C[C@H]1CCN1c1nc2c(c(-c3cccc(C4(O)CS(=O)(=O)C4)c3)n1)CCC2 [Example 397, (S)-3-hydroxy-3-(3-(2-(2-methylazetidin-1-yl)-6,7-dihydro-5H-cyclopenta[d]pyrimidin-4-yl)phenyl)thietane 1,1-dioxide]
- IC50 (human KHK-C): 32.8 nM
- EC50 [1]: 166 nM

SMILES: C[C@H]1CCN1c1nc2c(c(-c3ccc4c(c3)CN(S(=O)(=O)CC#N)CC4)n1)CCC2 [Example 604, (S)-2-((7-(2-(2-methylazetidin-1-yl)-6,7-dihydro-5H-cyclopenta[d]pyrimidin-4-yl)-3,4-dihydroisoquinolin-2(1H)-yl)sulfonyl)acetonitrile]
- EC50 [1]: 164 nM

SMILES: C[C@H]1CCN1c1nc2c(c(-c3cccc(C4CCS(=O)(=O)N4)c3)n1)CCC2 (stereo partly drawn) [Example 606, 3-(3-(2-((S)-2-methylazetidin-1-yl)-6,7-dihydro-5H-cyclopenta[d]pyrimidin-4-yl)phenyl)isothiazolidine 1,1-dioxide]
- EC50 [1]: 37.5 nM

SMILES: C[C@H]1[C@H](O)CN1c1nc(-c2ccc3c(c2)CNCC3)c2c(n1)C(F)(F)CC2 [Example 612, (2S,3R)-1-(7,7-difluoro-4-(1,2,3,4-tetrahydroisoquinolin-7-yl)-6,7-dihydro-5H-cyclopenta[d]pyrimidin-2-yl)-2-methylazetidin-3-ol]
- EC50 [1]: 32.5 nM

SMILES: C[C@H]1CCN1c1nc2c(c(-c3cn(C4CC4)nn3)n1)CCC2 [Example 644, 4-(1-cyclopropyltriazol-4-yl)-2-[(2S)-2-methylazetidin-1-yl]-6,7-dihydro-5H-cyclopenta[d]pyrimidine]
- EC50 [1]: 709 nM

SMILES: C[C@H]1CCN1c1nc2c(c(-c3cn(CCO)nn3)n1)CCC2 [Example 645, 2-[4-[2-[(2S)-2-methylazetidin-1-yl]-6,7-dihydro-5H-cyclopenta[d]pyrimidin-4-yl]triazol-1-yl]ethanol]
- EC50 [1]: 399 nM

SMILES: C[C@H]1CCN1c1nc(-c2ccc([C@H](N)C(F)F)cc2)c2c(n1)C(F)(F)CC2 [Example 650, (1S)-1-[4-[7,7-difluoro-2-[(2S)-2-methylazetidin-1-yl]-5,6-dihydrocyclopenta[d]pyrimidin-4-yl]phenyl]-2,2-difluoro-ethanamine]
- EC50 [1]: 39.1 nM
